Measured values as given in ChEMBL document CHEMBL1201862, “PubChem BioAssay data set” (2004).
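Briefly, cells in 96-well plates were exposed to five compound concentrations for 48 h, and endpoints were estimated by linear interpolation. Here, GI50 denotes the concentration required for 50% inhibition of growth.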 Activity calls are given as the source filed them. No stated cut-off is given here; in the data, active = GI50 up to about 1.1 µM and inactive = higher.

Key:
Experiment in all cases: NCI-60 cell line screen, 48 h
[1] = test system: SNB-19
[2] = test system: A498
[3] = test system: MCF7
[4] = test system: Hs-578T
[5] = test system: MDA-MB-231
[6] = test system: SF-268
[7] = test system: MOLT-4
[8] = test system: M14
[9] = test system: SK-MEL-28
[10] = test system: SK-MEL-2
[11] = test system: CCRF-CEM
[12] = test system: SW-620
[13] = test system: HT-29
[14] = test system: UACC-257
[15] = test system: SR
[16] = test system: OVCAR-4
[17] = test system: HL-60
[18] = test system: T47D
[19] = test system: SN12C
[20] = test system: HCC 2998
[21] = test system: EKVX
[22] = test system: COLO 205
[23] = test system: HOP-62
[24] = test system: SK-MEL-5
[25] = test system: OVCAR-3
[26] = test system: ACHN
[27] = test system: SNB-75
[28] = test system: A549
[29] = test system: NCI-H460
[30] = test system: KM12
[31] = test system: RXF 393
[32] = test system: LOX IMVI
[33] = test system: NCI/ADR-RES
[34] = test system: HCT-15
[35] = test system: TK-10
[36] = test system: HOP-92
[37] = test system: 786-0
[38] = test system: NCI-H226
[39] = test system: SF-295
[40] = test system: OVCAR-8
[41] = test system: Malme-3M
[42] = test system: SK-OV-3
[43] = test system: DU-145
[44] = test system: RPMI-8226
[45] = test system: NCI-H23
[46] = test system: MDA-MB-435
[47] = test system: CAKI-1
[48] = test system: HCT-116
[49] = test system: U-251
[50] = test system: UO-31
[51] = test system: SF-539
[52] = test system: UACC-62
[53] = test system: IGROV-1
[54] = test system: NCI-H522
[55] = test system: MDA-N
[56] = test system: K562
[57] = test system: PC-3
[58] = test system: OVCAR-5

Measured: GI50

O=C(CSCC(=O)N/N=C\c1ccc(F)cc1F)N/N=C\c1ccc(F)cc1F
> 100 µM: [34]
inactive: [1] > 100 µM | [2] > 100 µM | [3] > 100 µM | [4] > 100 µM | [5] > 100 µM | [6] > 100 µM | [7] > 100 µM | [8] > 100 µM | [9] > 100 µM | [10] > 100 µM | [11] > 100 µM | [12] > 100 µM | [13] > 100 µM | [14] > 100 µM | [15] > 100 µM | [16] > 100 µM | [17] > 100 µM | [18] > 100 µM | [19] > 100 µM | [20] > 100 µM | [21] > 100 µM | [22] > 100 µM | [23] > 100 µM | [24] > 100 µM | [25] > 100 µM | [26] > 100 µM | [27] > 100 µM | [28] > 100 µM | [29] > 100 µM | [30] > 100 µM | [31] > 100 µM | [32] > 100 µM | [33] > 100 µM | [35] > 100 µM | [36] > 100 µM | [37] > 100 µM | [38] > 100 µM | [39] > 100 µM | [40] > 100 µM | [41] > 100 µM | [42] > 100 µM | [43] > 100 µM | [44] > 100 µM | [45] > 100 µM | [46] > 100 µM | [47] > 100 µM | [48] > 100 µM | [49] > 100 µM | [50] > 100 µM | [51] > 100 µM | [52] > 100 µM | [53] > 100 µM | [54] > 100 µM

CCOP(=O)(Cc1nc(C#N)c(N)o1)OCC
inactive: [1] > 100 µM | [55] > 100 µM | [2] > 100 µM | [3] > 100 µM | [56] > 100 µM | [4] > 100 µM | [5] > 100 µM | [6] > 100 µM | [7] > 100 µM | [9] > 100 µM | [10] > 100 µM | [11] > 100 µM | [12] > 100 µM | [13] > 100 µM | [14] > 100 µM | [15] > 100 µM | [16] > 100 µM | [17] > 100 µM | [57] > 100 µM | [19] > 100 µM | [20] > 100 µM | [21] > 100 µM | [22] > 100 µM | [23] > 100 µM | [24] > 100 µM | [25] > 100 µM | [58] > 100 µM | [26] > 100 µM | [29] > 100 µM | [30] > 100 µM | [31] > 100 µM | [32] > 100 µM | [35] > 100 µM | [36] > 100 µM | [37] > 100 µM | [38] > 100 µM | [39] > 100 µM | [41] > 100 µM | [42] > 100 µM | [43] > 100 µM | [44] > 100 µM | [46] > 100 µM | [47] > 100 µM | [48] > 100 µM | [49] > 100 µM | [52] > 100 µM | [53] > 100 µM | [54] > 100 µM
> 100 µM: [34]

CC(C)CC1[C@@H](OCc2ccccc2)COS(=O)N1Cc1ccccc1 (some centres undefined)
inactive: [1] 41.7 µM | [55] 52.8 µM | [3] 41.9 µM | [56] 39.4 µM | [4] 23.9 µM | [5] 20.7 µM | [6] 32.6 µM | [7] 37 µM | [8] 51.4 µM | [9] 51.3 µM | [10] 31 µM | [11] 57.1 µM | [12] 39.8 µM | [13] 15.6 µM | [14] 30.7 µM | [15] 19.9 µM | [16] 44.2 µM | [57] 30.1 µM | [19] 57.8 µM | [21] 38.8 µM | [22] 57 µM | [23] 56.6 µM | [24] 33.5 µM | [25] 54.2 µM | [58] > 100 µM | [26] 35 µM | [27] 21.5 µM | [28] 46.6 µM | [30] 26.8 µM | [32] 24.8 µM | [33] 49.4 µM | [35] 40 µM | [37] 31.2 µM | [38] 47.1 µM | [39] 46.2 µM | [40] 39 µM | [41] 23.3 µM | [42] > 100 µM | [43] 35.6 µM | [44] 20.8 µM | [45] 39.6 µM | [46] 31.5 µM | [48] 28.2 µM | [49] 29.9 µM | [50] 34.6 µM | [52] 60 µM | [53] 31 µM
30.8 µM: [34]

CC1(C)CC(=O)C2=C(C1)OC1=C(C(=O)CC(C)(C)C1)C2CC(c1ccccc1)c1ccc(O)c(O)c1O (centres undefined)
inactive: [1] > 10 µM | [55] > 10 µM | [5] 8.91 µM | [6] > 10 µM | [8] 9.91 µM | [12] 3.36 µM | [13] 3.04 µM | [16] 6.38 µM | [57] 2.87 µM | [19] > 10 µM | [21] > 10 µM | [24] 5.68 µM | [25] 3.54 µM | [58] > 10 µM | [26] > 10 µM | [27] 3.05 µM | [28] 3.73 µM | [30] 3.41 µM | [31] > 10 µM | [33] > 10 µM | [35] > 10 µM | [36] 5.18 µM | [38] > 10 µM | [39] 3.96 µM | [40] > 10 µM | [43] > 10 µM | [45] 5.9 µM | [46] 8.13 µM | [47] 5.11 µM | [48] 8.81 µM | [49] > 10 µM | [50] > 10 µM | [51] > 10 µM | [53] > 10 µM
4.18 µM: [34]

CCOC(=O)C(=O)/C(=C/NC(=S)Nc1ccc(Cl)c(Cl)c1)C(=O)OCC
inactive: [1] > 100 µM | [55] 61.2 µM | [3] 62.2 µM | [4] 44.5 µM | [5] > 100 µM | [6] > 100 µM | [7] 29.4 µM | [8] 75.3 µM | [9] > 100 µM | [10] 69.2 µM | [11] 53.3 µM | [12] 87.9 µM | [13] 56.9 µM | [14] 60.3 µM | [15] 30.5 µM | [16] 88.7 µM | [17] 15.9 µM | [57] 47 µM | [19] 88.3 µM | [21] 25.6 µM | [22] 67.9 µM | [23] > 100 µM | [24] 27.6 µM | [25] 72.9 µM | [58] > 100 µM | [26] > 100 µM | [27] 31.2 µM | [28] > 100 µM | [29] > 100 µM | [30] 86.5 µM | [31] 37.8 µM | [32] > 100 µM | [33] 50.1 µM | [35] > 100 µM | [36] 55.8 µM | [37] 89.7 µM | [38] 56 µM | [39] > 100 µM | [40] > 100 µM | [41] > 100 µM | [42] > 100 µM | [43] > 100 µM | [44] 17.9 µM | [45] 70 µM | [46] 72.1 µM | [47] 64.7 µM | [48] 75 µM | [49] > 100 µM | [50] 27.5 µM | [51] 25.6 µM | [52] 57.8 µM | [53] 85.9 µM
> 100 µM: [34]
